Reference: ChEMBL document CHEMBL5042522, “One- and Two-Photon Uncaging of Carbon Monoxide (CO) with Real-Time Monitoring: On-Demand Carbazole-Based Dual CO-Releasing Platform to Test over Single and Combinatorial Approaches for the Efficient Regression of Orthotopic Murine Melanoma In Vivo” (J Med Chem, 2022)
The source made the active and inactive calls. No cut-off for these calls is given here.

How the values were obtained:
[1] = Stability of compound in PBS buffer at pH 7.4 at 100 uM incubated for 72 hrs under dark condition by RP-HPLC analysis; assay type: physicochemical; settings: read-out: Stability
[2] = Stability of compound in PBS buffer at pH 7.4 at 100 uM incubated for 72 hrs under dark condition in presence of cysteine by Reverse-phase HPLC analysis; assay type: physicochemical; settings: read-out: Stability
[3] = Photorelease ability in PBS buffer at pH 7.4 assessed as retention time of compound decomposition at 100 uM irradiated with >= 365 nm Hg lamp for 30 mins by RP-HPLC analysis; assay type: physicochemical; settings: pH 7.4, 0.5 h
[4] = Photorelease ability in PBS buffer at pH 7.4 assessed as retention time of 4-(6-(2,2-dihydroxyacetyl)-9-ethyl-9H-carbazol-3-yl)-1,3-dioxol-2-one formation at 100 uM irradiated with >= 365 nm Hg lamp for 30 mins by RP-HPLC analysis; assay type: physicochemical; settings: pH 7.4, 0.5 h
[5] = Photorelease ability in PBS buffer at pH 7.4 assessed as retention time of 1,1'-(9-ethyl-9H-carbazole-3,6-diyl)bis(2,2-dihydroxyethanone) formation at 100 uM irradiated with >= 365 nm Hg lamp for 30 mins by RP-HPLC analysis; assay type: physicochemical; settings: pH 7.4, 0.5 h
[6] = Photorelease activity in PBS buffer at pH 7.4 assessed as release of CO using 3',6'-Bis(allyloxy)-3H-spiro(isobenzofuran-1,9'-xanthen)-3-one fluorescent probe by measuring increase in fluorescence intensity irradiated with >= 365 nm Hg lamp at 500 uM in presence of PdCl2 by fluorescence spectroscopy; assay type: physicochemical; settings: pH 7.4, 500 µM, TDE = time-dependent effect
[7] = Photorelease activity in PBS buffer at pH 7.4 assessed as release of CO at 500 uM irradiated with pulsed laser at 730 nm for 30 mins by absorption spectroscopy; assay type: physicochemical; settings: pH 7.4, 0.5 h
[8] = Photorelease activity in PBS buffer at pH 7.4 assessed as 1,1'-(9-ethyl-9H-carbazole-3,6-diyl)bis(2,2-dihydroxyethanone) photoproduct formation by measuring lambda 485 nm green emission band excited at wavelength of 350 nm for 30 mins by fluorescence spectroscopy; assay type: physicochemical; settings: pH 7.4, 0.5 h
B16-F10 [9] = test: Cytotoxicity against mouse B16-F10 cells assessed as cell viability at 1.25 to 10 uM irradiated with >= 365 nm Hg lamp for 5 mins after 6 hrs post-treatment and further incubated for 72 hrs by MTT assay; assay type: functional; settings: dose 1.25-10 µM, time 78 hrs
HEK293 [10] = test: Induction of apoptosis in HEK293 cells assessed as necrotic cells at 5 uM incubated for 24 hrs by annexin-V-FITC and PI staining based flow cytometry analysis (reference value: 0 %); assay type: functional, Homo sapiens
HEK293 [11] = test: Induction of apoptosis in HEK293 cells assessed as viable cells at 5 uM with light irradiation incubated for 24 hrs by annexin-V-FITC and PI staining based flow cytometry analysis (reference value: 99.9 %); assay type: functional; settings: Homo sapiens, HEK293, light or radiation study, read-out: Activity
HEK293 [12] = test: Induction of apoptosis in HEK293 cells assessed as late apoptotic cells at 5 uM with light irradiation incubated for 24 hrs by annexin-V-FITC and PI staining based flow cytometry analysis (reference value: 0 %); assay type: functional, Homo sapiens
B16-F10 [13] = test: Induction of apoptosis in mouse B16-F10 cells assessed as viable cells at 5 uM with light irradiation incubated for 24 hrs by annexin-V-FITC and PI staining based flow cytometry analysis (reference value: 99.9 %); assay type: functional; settings: B16-F10, light or radiation study, read-out: Activity
B16-F10 [14] = test: Induction of apoptosis in mouse B16-F10 cells assessed as early apoptotic cells at 5 uM with light irradiation incubated for 24 hrs by annexin-V-FITC and PI staining based flow cytometry analysis (reference value: 0 %); assay type: functional
B16-F10 [15] = test: Induction of apoptosis in mouse B16-F10 cells assessed as necrotic cells at 5 uM with light irradiation incubated for 24 hrs by annexin-V-FITC and PI staining based flow cytometry analysis (reference value: 0 %); assay type: functional
B16-F10 [16] = test: Biodistribution in tumor site of C57BL/6 mouse model harboring mouse B16-F10 cells at 0.4 mg/kg, iv irradiated with >= 365 nm Hg lamp for 10 mins measured after 24 hrs post-administration by fluorescence based assay; assay type: ADME, organism-based; settings: in vivo, 24.17 h, time 1450 min
[17] = Biodistribution in liver of C57BL/6 mouse model harboring mouse B16-F10 cells at 0.4 mg/kg, iv irradiated with >= 365 nm Hg lamp for 10 mins measured after 24 hrs post-administration by fluorescence based assay; assay type: ADME, organism-based; settings: in vivo, 24.17 h, time 1450 min
B16-F10 [18] = test: Antitumor activity against mouse B16-F10 cells bearing C57BL/6J mouse assessed as tumor regression at 0.4 mg/kg, iv administered alternate days for 24 days followed by irradiation with pulsed laser at 730 nm for 10 mins after 24 hrs each post-injection and measured on day 25 by slide caliper method; assay type: functional, organism-based; settings: time 25.0 day
[19] = Toxicity in C57BL/6J mouse model harboring mouse B16-F10 cells assessed as change in body weight at 0.4 mg/kg, iv administered alternate days for 24 days followed by irradiation with pulsed laser at 730 nm for 10 mins after 24 hrs each post-injection; assay type: organism-based; settings: in vivo, 600 h, 0.73 µM, time 25 day
[20] = Toxicity in C57BL/6J mouse model harboring mouse B16-F10 cells assessed as change in movement at 0.4 mg/kg, iv administered alternate days for 24 days followed by irradiation with pulsed laser at 730 nm for 10 mins after 24 hrs each post-injection by hematoxylin and eosin staining based assay; assay type: organism-based; settings: in vivo, 600 h, 0.73 µM, time 25 day
[21] = Toxicity in C57BL/6J mouse model harboring mouse B16-F10 cells assessed as heart tissue necrosis at 0.4 mg/kg, iv administered alternate days for 24 days followed by irradiation with pulsed laser at 730 nm for 10 mins after 24 hrs each post-injection by hematoxylin and eosin staining based assay; assay type: organism-based; settings: in vivo, 600 h, 0.73 µM, time 25 day
[22] = Toxicity in C57BL/6J mouse model harboring mouse B16-F10 cells assessed as tumor tissue necrosis at 0.4 mg/kg, iv administered alternate days for 24 days followed by irradiation with pulsed laser at 730 nm for 10 mins after 24 hrs each post-injection by hematoxylin and eosin staining based assay; assay type: organism-based; settings: in vivo, 600 h, 0.73 µM, time 25 day
[23] = Photolysis of compound in PBS buffer at pH 7.4 assessed as compound decomposition by measuring final photoproduct formation at 0.1 mM irradiated with >= 365 nm for 30 mins by RP-HPLC analysis; assay type: physicochemical; settings: pH 7.4, 0.5 h, 100 µM

CCn1c2ccc(-c3coc(=O)o3)cc2c2cc(-c3coc(=O)o3)ccc21
remaining at 72 h, 100 µM [1]: 96%
remaining at 72 h, 100 µM [2]: 92%
Retention_time [3]: 6.21 min
Retention_time [4]: 8.05 min
Retention_time [5]: 8.82 min
Drug metabolism [6]: Tde
Drug metabolism [7]: 4.5 ppm
Drug metabolism [8]: Active
Activity (B16-F10 [9]): 20%
Activity (HEK293 [10]): 0%
viability at 5 µM (HEK293 [11]): 46.4%
Activity (HEK293 [12]): 7.3%
viability at 5 µM (B16-F10 [13]): 51.4%
Activity (B16-F10 [14]): 32.8%
Activity (B16-F10 [15]): 0.5%
Drug uptake (B16-F10 [16]): Active
Drug uptake [17]: Active
Activity (B16-F10 [18]): Active
Activity [19]: Non-Toxic
Activity [20]: Non-Toxic
Activity [21]: Non-Toxic
Activity [22]: Toxic
Drug degradation [23]: 89%
